Experimental findings from patent publication US12286402B2, “Compounds and their use for the treatment of alpha1-antitrypsin deficiency” (CENTESSA PHARMACEUTICALS (UK) LIMITED, priority 2019, dated 2025) are described below.

SMILES strings stand for the structures.

The target in this assay is T1, human Z A1AT (Homo sapiens, UniProt P01009, E366K).
T1 construct: expressed in transfected cells; host or cells: HEK-Z cells (human embryonic kidney cell line stably transfected with the human Z A1AT gene)
T1 sequence (P01009 25-418 E366K): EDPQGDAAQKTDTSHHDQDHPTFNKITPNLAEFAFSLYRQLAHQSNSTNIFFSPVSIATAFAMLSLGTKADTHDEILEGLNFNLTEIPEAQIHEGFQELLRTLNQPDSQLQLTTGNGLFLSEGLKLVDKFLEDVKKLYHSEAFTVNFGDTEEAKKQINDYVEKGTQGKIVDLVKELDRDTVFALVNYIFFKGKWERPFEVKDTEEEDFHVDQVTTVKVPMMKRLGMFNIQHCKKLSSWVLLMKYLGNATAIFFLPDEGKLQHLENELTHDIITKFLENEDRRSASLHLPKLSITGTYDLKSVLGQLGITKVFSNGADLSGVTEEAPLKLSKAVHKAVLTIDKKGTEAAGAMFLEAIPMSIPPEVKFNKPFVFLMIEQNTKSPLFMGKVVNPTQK
The experiment in a line: A1AT cell secretion assay using HEK-Z cells (A1AT ELISA of supernatants). It is filed as cell-based. The conditions noted are these: 48 h, supernatant A1AT by ELISA. The method, then:
HEK-Z cells, a human embryonic kidney cell line stably transfected with the human Z A1AT gene, were plated into 96 well plates (3.0×10^5 cells/ml with 200 μl of media/well) overnight at 37° C. in a humidified atmosphere containing 5% CO2. Following incubation cells were washed with 200 μl serum-free media three times and media was replaced with treatments in quadruplicate using serum free media containing either vehicle, 10 μM suberanilohydroxamic acid (SAHA) or a compound of the invention (at concentrations of 10, 33, 100 and 333 nM) for 48 h in a 37° C. incubator in a final volume of 200 μl. At the end of the incubation step the supernatants were removed from the wells, centrifuged at 1000×g at 4° C. for 10 min and were assayed for human A1AT levels by ELISA (Human Serpin A1/α1-antitrypsin duo set ELISA, R& D Systems, DY1268) per manufacturer's instructions.
Briefly, a 96 well plate was coated with human A1AT capture antibody overnight at room temperature (1:180 dilution from stock, 100 μl final volume/well). The capture antibody was then removed and wells washed three times with 300 μl wash buffer (0.05% Tween 20 in PBS) and then 200 μl reagent diluent ([…]) was incubated in each well for 1 h at room temperature. Diluted samples, standards (125, 250, 500, 1000, 2000, 4000 and 8000 pg/ml A1AT) or blanks were then added to each well in duplicate and the plates were covered with a plate sealer and left at room temperature for 2 h. At the end of the sample incubation step, samples were removed and all wells washed as previously and 100 μl detection antibody (1:180 dilution from stock) was added to each well and incubated for a further 2 h at room temperature. Following incubation with detection antibody, supernatant was removed and wells were washed as previously and 100 μl streptavidin-HRP solution (1:200 dilution from stock) was added to each well for 20 min in the dark. After which, 50 μl stop solution (2M H2SO4) was added and optical density (OD) of each well was read at 450 nm with 570 nm blank subtracted from each well using a microplate reader. A 4 parameter logistic curve was constructed using GraphPad Prism 7 and A1AT concentrations were determined in each sample by interpolation from a standard curve and multiplying by the appropriate dilution factor.
A general note: ELISA stands for enzyme-linked immunosorbent assay.
`CN(C)C(=O)c1ccc(Cn2ccccc2=O)cc1` [Example 1, N,N-dimethyl-4-((2-oxopyridin-1(2H)-yl)methyl)benzamide]: the “Median A1AT % increase over vehicle at 300 nM” value (shortened to “Median A1AT % increase”) stood at 125%.

As to `CN(CC(F)(F)F)C(=O)c1ccc(Cn2ccccc2=O)cc1` [Example 5, N-methyl-4-((2-oxopyridin-1(2H)-yl)methyl)-N-(2,2,2-trifluoroethyl)benzamide], the “Median A1AT % increase” value is 129%.

Take `CN(Cc1ccccc1)C(=O)c1ccc(Cn2ccccc2=O)cc1` [Example 4, N-benzyl-N-methyl-4-((2-oxopyridin-1(2H)-yl)methyl)benzamide]: the “Median A1AT % increase” value stood at 142%.

Turning to `CC(C)N(C)C(=O)c1ccc(Cn2ccccc2=O)cc1` [Example 3, N-isopropyl-N-methyl-4-((2-oxopyridin-1(2H)-yl)methyl)benzamide], the “Median A1AT % increase” value is given as 134%.

Consider `CCN(C)C(=O)c1ccc(Cn2ccccc2=O)cc1` [Example 2, N-ethyl-N-methyl-4-((2-oxopyridin-1(2H)-yl)methyl)benzamide], for which the “Median A1AT % increase” value amounted to 147%.
